Assay results as given in US8912144B2, “Method for treating stroke via administration of NEP1-40 and inosine” (Children's Medical Center Corporation, priority 2003, dated 2014).

System: corticospinal neurons (CSNs/CSMNs)
Assay: Laser-capture microdissection and Illumina microarray gene expression in corticospinal neurons contralateral to stroke
Assay type: in vivo, rat
Method: In a separate group of animals (n=20), layer V pyramidal cells of the sensorimotor cortex were retrogradely labeled by injecting Alexa-Fluor-488-conjugated cholera toxin B subunit (CTB; 300 U/μl in sterile saline) into the cervical spinal cord. For this, animals were anesthetized with a combination of ketamine and Domitor (medetomidine) and a laminectomy was performed at the cervical level of the spinal cord (C2-C4). CTB was stereotaxically delivered into four sites lateral to the corticospinal tract. Injections (1.3 μl) were spaced 1 mm apart on the rostro-caudal axis, and were made 0.5 mm to the left and right of the midline. After allowing two weeks for transport of the tracer, we performed either sham surgery with no treatment (n=6) or stroke surgery combined with saline (n=3) or inosine (n=4) treatment as described above. Seven days later, animals were decapitated under transient gas anesthesia, brains were removed and rinsed in cold RPMI medium, and a tissue block containing the sensorimotor cortex was dissected and placed in OCT Tissue Tek Medium (Sakura Finetek USA Inc., CA) on dry ice within five minutes of death. Ten μm sections were cut onto precleaned Gold Seal RITE-ON glass slides (Gold Seal Prod-ucts, Portsmouth, N.H.), placed on dry ice, and rapidly stored at −80° C.
Slide-mounted sections were thawed and dehydrated in RNAse-free ethanol gradients and xylene. Retro-gradely labeled, fluorescent cortical pyramidal cells in the undamaged hemisphere were individually captured using the Arcturus VERITAS system. ≧500 cells were collected from each animal and stored in Arcturus extraction buffer at −80° C. Total RNA was extracted from cells using the Micro-to-Midi TotalRNA Purification System (Invitrogen, Carlsbad Calif.) and double-amplified using the TargetAmp 2-Round Aminoallyl-aRNA Amplification kit 1.0 (Epicentre, Madison, Wis.). Amplified RNA was checked for average fragment length using the Agilent RNA 6000 Nano LabChip kit (Agilent Technologies, Santa Clara, Calif.) and then biotinylated and hybridized (1 μg) on Illumina RatRef-12 Expression BeadChip arrays (Illumina, San Diego Calif.), querying the expression of >22,000 RefSeq-curated rat transcripts. Results were obtained from a total of 15 samples representing 6 untreated controls, 4 animals with stroke treated with saline and 5 animals with stroke treated with inosine. Slides were processed and scanned with Illumina BeadStation platform according to the manufacturer protocol.
Raw data was analyzed using Bioconductor packages (www.bioconductor.org, (Gentleman et al., 2004)). Low level quality-control analysis was performed using inter-array Pearson correlation and clustering based on variance. Two arrays (1 saline and 1 inosine-treated) were outliers and were excluded from the analysis. Data was normalized using quantile normalization, and analysis of differential expression was performed using a linear model fitting (LIMMA package, (Smyth, 2005). Differentially expressed genes were classified according to gene ontology using Bioconductor packages and online tools (DAVID, http://david.abcc.ncifcrf.gov/). Pathway analysis was carried out using Ingenuity Pathway Analysis (Ingenuity Systems, www.ingenuity.com).

## OC[C@H]1O[C@@H](n2cnc3c(O)ncnc32)[C@H](O)[C@@H]1O [inosine]
ILMN_61521, inosine after stroke
  Signal Intensity, LOC500629: 946
ILMN_61607
  Fold-Induction Stroke, ino vs. cntrl, LOC500137: 0.58
ILMN_61607, inosine after stroke
  Signal Intensity, LOC500137: 454
ILMN_61840
  Fold-Induction Stroke, ino vs. cntrl, Slc6a15: 0.43
ILMN_61840, inosine after stroke
  Signal Intensity, Slc6a15: 1093
ILMN_62095
  Fold-Induction Stroke, ino vs. cntrl, Bpnt1: 0.70
ILMN_62095, inosine after stroke
  Signal Intensity, Bpnt1: 283
ILMN_62100, over and above inosine's effect of decreasing stroke-induced changes
  Fold-induction CSMNs: Ftl1: 1.74 fold
ILMN_62325
  Fold-Induction Stroke, ino vs. cntrl, Ddx1: 0.57
ILMN_62325, inosine after stroke
  Signal Intensity, Ddx1: 3553
ILMN_62559, over and above inosine's effect of decreasing stroke-induced changes
  Fold-induction CSMNs: Timp1: 3.74 fold
ILMN_62620
  Fold-Induction Stroke, ino vs. cntrl, Rab18: 0.76
ILMN_62620, inosine after stroke
  Signal Intensity, Rab18: 2230
ILMN_62651, over and above inosine's effect of decreasing stroke-induced changes
  Fold-induction CSMNs: Eif4ebp1: 1.86 fold
ILMN_62918
  Fold-Induction Stroke, ino vs. cntrl, Grinl1a: 0.66
ILMN_62918, inosine after stroke
  Signal Intensity, Grinl1a: 667
ILMN_62999
  Fold-Induction Stroke, ino vs. cntrl, Ppp1cb: 0.42
ILMN_62999, inosine after stroke
  Signal Intensity, Ppp1cb: 940
ILMN_63077
  Fold-Induction Stroke, ino vs. cntrl, LOC302559: 0.89
ILMN_63077, inosine after stroke
  Signal Intensity, LOC302559: 1031
ILMN_63297
  Fold-Induction Stroke, ino vs. cntrl, LOC366673: 0.60
ILMN_63297, inosine after stroke
  Signal Intensity, LOC366673: 298
ILMN_63299
  Fold-Induction Stroke, ino vs. cntrl, Rcn2: 0.60
ILMN_63299, inosine after stroke
  Signal Intensity, Rcn2: 442
ILMN_63474
  Fold-Induction Stroke, ino vs. cntrl, Gtl6: 0.51
ILMN_63474, inosine after stroke
  Signal Intensity, Gtl6: 302
ILMN_63608, LCM-captured CSMNs contralateral a stroke
  Fold-Induction, complement cascade gene C2: 2.93 fold
ILMN_63884
  Fold-Induction Stroke, ino vs. cntrl, Cdc91l1: 0.82
ILMN_63884, inosine after stroke
  Signal Intensity, Cdc91l1: 529
ILMN_63947
  Fold-Induction Stroke, ino vs. cntrl, LOC306428: 0.42
ILMN_63947, inosine after stroke
  Signal Intensity, LOC306428: 507
ILMN_64006
  Fold-Induction Stroke, ino vs. cntrl, LOC500436: 0.48
ILMN_64006, inosine after stroke
  Signal Intensity, LOC500436: 1871
ILMN_64007
  Fold-Induction Stroke, ino vs. cntrl, LOC366411: 0.51
ILMN_64007, inosine after stroke
  Signal Intensity, LOC366411: 295
ILMN_64237
  Fold-Induction Stroke, ino vs. cntrl, Bcl10: 0.84
ILMN_64237, inosine after stroke
  Signal Intensity, Bcl10: 723
ILMN_64781
  Fold-Induction Stroke, ino vs. cntrl, Magi3: 0.79
ILMN_64781, inosine after stroke
  Signal Intensity, Magi3: 472
ILMN_64945
  Fold-Induction Stroke, ino vs. cntrl, Rtn4: 0.57
ILMN_64945, inosine after stroke
  Signal Intensity, Rtn4: 6518
ILMN_65062
  Fold-Induction Stroke, ino vs. cntrl, LOC500501: 0.79
ILMN_65062, inosine after stroke
  Signal Intensity, LOC500501: 958
ILMN_65170
  Fold-Induction Stroke, ino vs. cntrl, LOC287212: 0.60
ILMN_65170, inosine after stroke
  Signal Intensity, LOC287212: 1634
ILMN_65309
  Fold-Induction Stroke, ino vs. cntrl, LOC499328: 0.53
ILMN_65309, inosine after stroke
  Signal Intensity, LOC499328: 899
ILMN_65450
  Fold-Induction Stroke, ino vs. cntrl, Psmb5: 0.65
ILMN_65450, inosine after stroke
  Signal Intensity, Psmb5: 2709
ILMN_65510
  Fold-Induction Stroke, ino vs. cntrl, Hnrpf: 0.86
ILMN_65510, inosine after stroke
  Signal Intensity, Hnrpf: 1922
ILMN_65587
  Fold-Induction Stroke, ino vs. cntrl, Psma7: 0.62
ILMN_65587, inosine after stroke
  Signal Intensity, Psma7: 2058
ILMN_65610
  Fold-Induction Stroke, ino vs. cntrl, LOC497663: 0.90
ILMN_65610, inosine after stroke
  Signal Intensity, LOC497663: 416
ILMN_65657
  Fold-Induction Stroke, ino vs. cntrl, Pafah1b2: 0.56
ILMN_65657, inosine after stroke
  Signal Intensity, Pafah1b2: 411
ILMN_65667
  Fold-Induction Stroke, ino vs. cntrl, LOC294046: 0.55
ILMN_65667, inosine after stroke
  Signal Intensity, LOC294046: 2096
ILMN_65668
  Fold-Induction Stroke, ino vs. cntrl, Rchy1: 0.77
ILMN_65668, inosine after stroke
  Signal Intensity, Rchy1: 416
ILMN_65702
  Fold-Induction Stroke, ino vs. cntrl, LOC501181: 0.49
ILMN_65702, inosine after stroke
  Signal Intensity, LOC501181: 268
ILMN_65814
  Fold-Induction Stroke, ino vs. cntrl, Mal: 0.40
ILMN_65814, inosine after stroke
  Signal Intensity, Mal: 465
ILMN_65993
  Fold-Induction Stroke, ino vs. cntrl, MGC93921: 0.69
ILMN_65993, inosine after stroke
  Signal Intensity, MGC93921: 845
ILMN_66036
  Fold-Induction Stroke, ino vs. cntrl, LOC299179: 0.76
ILMN_66036, inosine after stroke
  Signal Intensity, LOC299179: 385
ILMN_66272
  Fold-Induction Stroke, ino vs. cntrl, LOC317232: 0.70
ILMN_66272, inosine after stroke
  Signal Intensity, LOC317232: 5211
ILMN_66300
  Fold-Induction Stroke, ino vs. cntrl, Spnb4: 0.72
